pKi: −log10 of the molar value.
Biological target: Cytochrome P450 2C9 (Homo sapiens, UniProt P11712)
Assay: Binding affinity towards cytochrome P450 2C9
Assay type: ADME

Chain of Cytochrome P450 2C9 (P11712 whole entry): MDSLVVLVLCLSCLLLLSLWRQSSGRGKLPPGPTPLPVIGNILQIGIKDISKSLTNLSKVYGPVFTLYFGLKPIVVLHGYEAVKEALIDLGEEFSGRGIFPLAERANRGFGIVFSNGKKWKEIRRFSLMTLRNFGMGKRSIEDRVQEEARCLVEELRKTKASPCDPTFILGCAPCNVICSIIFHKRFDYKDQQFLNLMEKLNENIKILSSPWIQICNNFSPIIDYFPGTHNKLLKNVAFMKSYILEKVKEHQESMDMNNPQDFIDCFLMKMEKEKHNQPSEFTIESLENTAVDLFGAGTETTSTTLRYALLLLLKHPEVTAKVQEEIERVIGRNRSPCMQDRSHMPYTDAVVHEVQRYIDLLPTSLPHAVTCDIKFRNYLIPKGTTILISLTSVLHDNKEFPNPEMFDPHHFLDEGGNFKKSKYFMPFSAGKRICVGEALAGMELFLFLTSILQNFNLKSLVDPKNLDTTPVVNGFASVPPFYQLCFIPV

pKi	Compound
4.72	CCCCC1C(=O)N(c2ccccc2)N(c2ccccc2)C1=O [PHENYLBUTAZONE]
4.70	Nc1c(Oc2ccc(Cl)cc2Cl)ccc(Cl)c1S(=O)(=O)O
4.35	COc1ccc2[nH]c([S+]([O-])Cc3ncc(C)c(OC)c3C)nc2c1 (centres undefined) [OMEPRAZOLE]
5.07	COCCCC/C(=N\OCCN)c1ccc(C(F)(F)F)cc1 [FLUVOXAMINE]
3.90	O=C1NC(=O)C2(N1)c1ccccc1-c1ccccc12
4.03	[O-][S@+](Cc1cc(OCC2CC2)ccn1)c1nc2cc(F)ccc2[nH]1
4.80	CO[C@]1(C)C[C@H](c2ccccc2)C2C(=O)Oc3ccccc3C2O1 (some centres undefined)
4.46	COc1ccc2nc(S(=O)(=O)Cc3ncc(C)c(OC)c3C)[nH]c2c1 [OMEPRAZOLE SULFONE]
3.61	c1ccc2[nH]c(-c3cscn3)nc2c1 [THIABENDAZOLE]
4.22	[O-][S@@+](Cc1cc(OCC2CC2)ccn1)c1nc2ccc(F)cc2[nH]1
3.85	COC(=O)c1ccc2nc([S@+]([O-])Cc3nccc(OC)c3OC)[nH]c2c1
3.84	COc1ccnc(C[S@@+]([O-])c2nc3cc(OC(F)F)ccc3[nH]2)c1OC
4.19	COc1ccnc(C[S@+]([O-])c2nc3cc(OC(F)F)ccc3[nH]2)c1OC
4.77	Cc1nn(C)c(C)c1NC(=O)c1ccccc1NS(=O)(=O)c1cc(Cl)sc1Cl
4.19	COC(=O)c1ccc2[nH]c([S@@+]([O-])Cc3nccc(OC)c3OC)nc2c1
5.60	COc1cc(C(=O)NS(=O)(=O)c2ccccc2C)ccc1Cc1cn(C)c2ccc(NC(=O)OC3CCCC3)cc12 [ZAFIRLUKAST]
5.22	O=c1c(O)c(-c2ccc(O)cc2)oc2cc(O)cc(O)c12 [KAEMPFEROL]

Compound	pKi
CC(=O)[C@H]1CC[C@H]2[C@@H]3CCC4=CC(=O)CC[C@]4(C)[C@H]3CC[C@]12C [PROGESTERONE]	5.26
COCCCOc1ccnc(C[S@+]([O-])c2nc3ccccc3[nH]2)c1C	4.43
Clc1ccc(CO[C@H](Cn2ccnc2)c2ccc(Cl)cc2Cl)c(Cl)c1	5.22
Clc1ccc(CO[C@@H](Cn2ccnc2)c2ccc(Cl)cc2Cl)c(Cl)c1 [(R)-MICONAZOLE]	5.22
COCCCOc1ccnc(C[S@@+]([O-])c2nc3ccccc3[nH]2)c1C [DEXRABEPRAZOLE]	4.44
CO[C@@]1(C)C[C@H](c2ccccc2)c2c(c3ccccc3oc2=O)O1	4.80
CC(=O)C[C@H](c1ccccc1)C1C(=O)Oc2ccccc2C1O (some centres undefined)	4.87

Source: ChEMBL document CHEMBL1148414, “Conformer- and alignment-independent model for predicting structurally diverse competitive CYP2C9 inhibitors” (J Med Chem, 2004)
